Entries after “also recorded” stand apart in the source; their conditions may differ.
Columns and labels:
corneal kindling = experiment: Mouse corneal kindling acquisition; type: in vivo, CF#1 mice; conditions: 4 mg/kg i.p. twice daily
Description: CF#1 mice were randomized to receive either vehicle (0.9% saline) or NAX-5055. Mice in the NAX-5055 group received two doses of NAX-5055 twelve (12 h) and 1 h prior to their first kindling stimulation. One hour (1 h) prior to each subsequent stimulation, mice in the NAX-5055 treated group received another dose of NAX-5055 (4 mg/kg, i.p.). Mice were stimulated twice daily for 16 days. Results are expressed as the mean seizure score per stimulation. As noted above, the results for the NAX-5055 treated mice segregated into two populations; i.e., sensitive (green line) and insensitive (blue line).
Daily electrical stimulation via the cornea results in a stable kindled state within 15-20 days. This is an ideal model to initially assess the ability of selected galanin analogs to prevent kindling acquisition because the amount of peptide required is much lower than what is required for a rat kindling study. Those compounds found to be effective in preventing the acquisition of kindling are subsequently evaluated in a more traditional rat kindling model; i.e., amygdala kindled rat. For the proposed studies two groups of mice (n=8 mice per group) are randomized to receive either vehicle or peptide prior to each kindling stimulation. […] At the time to peak effect (obtained from the 6 Hz study), they are stimulated via corneal electrodes with a subconvulsive current (50 Hz, 3 mA, for 3.0 sec) and observed for the presence or absence of seizure activity. Seizure activity is scored according to the criteria established by Racine et al., (1972). Animals receive two stimulations per day until they display their first Stage 5 behavioral seizure and then once daily until they display stable secondarily generalized seizures (5 consecutive Stage 4-5 seizures). Peptide treatment continues in the experimental group until the point that the control mice become fully kindled. At this point, mice in both groups are permitted a one-week stimulus and treatment-free week. On the 8th day, mice in both groups are stimulated in the absence of peptide or vehicle and their seizure score recorded.
The ability of the blood-brain-barrier penetrant galanin-based neuropeptide NAX-5055 to prevent the development of corneal kindling was studied in CF#1 mice. The mouse corneal kindling model is a non-intrusive animal model of partial epilepsy wherein mice receive an initially subconvulsive current (3 mA) for 3 seconds via corneal electrodes twice daily for several days. Vehicle treated mice usually require between 12-16 days to reach a stable Stage 5 seizure; i.e., a secondary generalized focal seizure. In the present study, 16 mice were randomized to one of two experimental groups; saline or NAX-5055. […] Following stimulation seizure activity was scored on a scale of 0-5 as established by Racine (1972).

[1] = test system: clonic (s.c. Metrazol) seizures; experiment: s.c. Metrazol seizure test; type: in vivo, mice; conditions: 4 mg/kg i.p., tested one hour later
Description: Mice will be placed into individual plexiglas observation boxes and observed for 30 minutes for the presence of a minimal clonic seizure. Mice not displaying clonic seizure activity will be considered protected.

mechanical allodynia = experiment: Sciatic nerve ligation model, mechanical allodynia; type: in vivo, rats
Description: Just prior to surgery, rats are treated subcutaneously with 0.1 to 0.5 mg/kg of the long acting opiate buprenorphine. Rats are then anesthetized with pentobarbital and the depth of anesthesia monitored by their response to a tail pinch and observation of the depth of respiration. Sterile technique was used throughout the surgery.
The upper thigh of each rat was shaved and wiped off with ethanol and betadine. A small incision was made in the skin and through the underlying muscle of the upper thigh until the sciatic nerve was exposed. The nerve was then separated from the surrounding connective tissue and slightly elevated by a pair of fine, curved forceps. Approximately ⅓ to ½ of the nerve was then tied off by passing a needle and nylon suture (7.0) through the nerve. The muscle and skin incision was then closed sutured separately with 5.0 suture and the animals were kept warm by placing on a thermostatically controlled heat blanket until they have recovered from the anesthesia. This procedure was conducted on the right side (ipsilateral) while a sham surgery was performed on the left hind leg (contralateral). The latter involves a similar procedure with the exception that the sciatic nerve on this side was only exposed and not ligated. Twelve hours post surgery, a second dose of buprenorphine was administered to minimize any discomfort from the surgical procedure. Rats were closely monitored daily for the development of infection or untoward effects of the surgery.
After an appropriate time for recovery (e.g., 7-14 days) the animals were tested for the development of mechanical allodynia (pain response to a non-noxious stimulus). For this study, the animals placed in a bottomless plexiglass box placed on a wire mesh (¼″) platform. After a 30-60 minute acclimation period, a baseline mechanical sensitivity was determined. […] This procedure was repeated until a 50% threshold for withdrawal could be determined.

[2] = test system: tonic-extension (maximal electroshock) seizures; experiment: Maximal electroshock seizure test; type: in vivo, mice; conditions: 4 mg/kg i.p., tested one hour later
Source text: Abolition of the hindleg tonic extensor component of the seizure is used as the endpoint.

6 Hz limbic seizures = experiment: 6 Hz limbic (psychomotor) seizure test; type: in vivo, CF-1 mice
Source text: Mice not displaying limbic seizures were considered protected.

Sar-Trp-Thr-Leu-Asn-Ser-Ala-Gly-Tyr-Leu-Leu-Gly-Pro-Lys-Lys-(Lys-palm)-Lys-NH2 [NAX 5055]
kindling acquisition (corneal kindling): can delay kindling acquisition
more stimulations to reach Stage 2 and Stage 3 seizures, NAX-5055 sensitive group (corneal kindling): 35-40%
stimulations required to reach a Stage 1 seizure, NAX-5055 sensitive group (corneal kindling): two times more stimulations
mice of NAX-5055 sensitive group that reached Stage 5 seizures (corneal kindling; sensitive n=3 of 8): none
protection in s.c. Metrazol seizure test [1]: 25%
potency compared with morphine (mechanical allodynia; 2 mg/kg i.p. vs 2 mg/kg morphine): equi-potent
potency compared with gabapentin (mechanical allodynia; 2 mg/kg i.p. vs 40 mg/kg gabapentin): several fold more potent
threshold for mechanical allodynia (mechanical allodynia; 2 mg/kg i.p., 30 min to 6 h): time-dependent increase
activity in maximal electroshock seizure test [2]: completely inactive
activity in pharmaco-resistant seizure model (6 Hz limbic seizures; 4 mg/kg): active
% Protection at 1 hour (6 Hz limbic seizures; 4 mg/kg, i.p., 1 h, model not printed at tables, ED50s of same analogs called 6 Hz model): 100%
% Protection at 2 hours (6 Hz limbic seizures; 4 mg/kg, i.p., 2 h): 100%
% Protection at 4 hours (6 Hz limbic seizures; 4 mg/kg, i.p., 4 h): 0%
potency and efficacy compared with native peptide (6 Hz limbic seizures; 6 Hz (32 mA) test): more potent and more efficacious
ED50 in the 6 Hz model (6 Hz limbic seizures; i.p.): 0.8 mg/kg
dose in parentheses in Table 14 (ED50) (6 Hz limbic seizures; i.p., not labelled in table): 0.8 mg/kg
ED50 following i.c.v. administration (6 Hz limbic seizures; intracerebroventricular, 6 Hz (32 mA) test, FIG. 22): 0.07 nmol
anticonvulsant activity following subcutaneous administration (6 Hz limbic seizures; s.c., 32 mA, 6 Hz, 60 min after injection): preserved; also recorded: retained

— patent US20180340012A1, “METHODS AND CO[…] TO IMPROVING PROPERTIES OF PHARMACOLOGICAL AGENTS TARGETING NERVOUS SYSTEM” (University of Utah Research Foundation, priority 2006, published 2018)
